The values below come from PubChem BioAssay AID602234 (The Scripps Research Institute Molecular Screening Center, 2012).

Calls of active or inactive are those of the source. No rule for the calls is given here.

The nature of this test: SRC3 coactivator transcriptional activity inhibitors, dose response, counter-screen for SRC1 inhibitor project, cell-based, luminescence (AID 602234).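 Also: HEK293 cells co-transfected with pGL4.31 reporter and pBIND-SRC3 fusion vector; potency for inhibition of reporter luminescence with Gossypol as full inhibition.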 As to conditions: transfected HEK293 cells, counter-screen luciferase reporter. In general terms: A counterscreen serves to expose hits that act by an unwanted route or on another target.

As for `COC(=O)N(NC(=O)C(O)(CCC(C)C)CCC(C)C)c1ccccc1`, the IC50 is > 35.9 µM (inactive).
The value for `O=C(CCCc1nc(-c2ccccc2Cl)no1)NC1CCCC1` was 3.59 µM.
As to `COc1ccc(-c2cc(=O)oc3c(C)c(O)c(CN(C)C)cc23)cc1`, the IC50 was 12.1 µM (inactive).
Consider `O=[N+]([O-])c1ccc(N(CCO)CCO)c2c1no[n+]2[O-]`, for which the IC50 was 6.44 µM.
As for `CCOc1ccc(/C=C2\SC(=S)N(CCCC(=O)NCCCN3CCOCC3)C2=O)cc1`, the IC50 was 5.91 µM.
The value for `CC(C)(C)c1cc(C(=O)N/N=C/c2ccc(O)cc2)n(-c2ccccc2)n1` was 27.1 µM (inactive); that for `COc1ccc(/C=C2/SC(=S)N(CCC(=O)O)C2=O)cc1` was 1.07 µM; that for `CCC(C)(C)n1nnnc1CN1CCC(n2c(C)nc3cc(C(F)(F)F)ccc32)CC1` was > 35.9 µM (inactive).
For `COc1ccc(-n2cnc(N)c2C(=O)c2cccc([N+](=O)[O-])c2)cc1`, the IC50 was 3.87 µM.
`Cc1ccc(S(=O)(=O)NC(CC(C)C)C(=O)NCC(c2ccco2)N2CCCCC2)cc1` (configuration not stated): the half-inhibitory concentration (IC50) was 3.11 µM.
As for `CC(C)n1c(-c2cccnc2)nc2cnccc21`, the IC50 is 5.26 µM.
On to `CC(=O)c1cc2c(C)cc(=O)oc2cc1O`, for which the IC50 is 11.2 µM (inactive).
Turning to `N#Cc1c(-c2ccccc2)c(C#N)c2nc3ccccc3n2c1N`, the IC50 is 21.9 µM (inactive).
The value for `Cc1cccc(C)c1-c1ccc(CN2C(CC(C)C)C(=O)N(Cc3cn(CC4CCCCC4)nn3)CCS2(=O)=O)cc1` (configuration not stated) was 8.2 µM; that for `CCc1ccc(-c2nc(CSCC(=O)NCc3ccco3)c(C)o2)cc1` was 6.43 µM; that for `CN1CCN(c2cccc3c2C(=O)c2ccccc2C3=O)CC1` was > 35.9 µM (inactive).
The value for `CN(C)C=Nc1c(C(=O)c2ccccc2)sc2nccc(N(C)C)c12` was 6.82 µM; that for `O=C1c2cccc(OCc3ccc(F)cc3)c2CCN1Cc1ccccc1` was 4.15 µM; that for `C=CCOc1ccc(/C=C2\SC(=S)N(CCC(=O)O)C2=O)cc1` was 3.47 µM.
`Nc1ccc(Oc2ccccc2-c2ccccc2)cc1`: the IC50 is 7.34 µM.
For the compound `S=C(Nc1ccccc1)Nc1ccc(OCc2ccc(Cl)cc2Cl)cc1`, the half-inhibitory concentration (IC50) was 1.39 µM.
On to `CC(=O)NC(c1cc(Cl)c2cccnc2c1O)C1CC1` (configuration not stated), for which the IC50 is 6.13 µM.
As for `Cc1ccc(NC(=O)C2CCN(c3ncnc4sc(C)c(C)c34)CC2)cc1S(=O)(=O)N(C)C`, the IC50 was > 12 µM (inactive).
The value for `CCOc1cccc(/C=N/NC(=O)c2cccnc2)c1O` was 9.67 µM; that for `Cc1ccc2nc(C(F)(F)F)c(C#N)c(N)c2c1` was 5.13 µM; that for `COc1cccc(/C=N/NC(=O)CNC(=O)C2COc3ccccc3O2)c1O` (configuration not stated) was 4.31 µM.
To `O=C(CCl)NC(Cc1ccccc1)c1ccccc1` (configuration not stated) belongs 6.42 µM; to `CC(C)Cn1c(N)c(C(=O)COC(=O)c2cc3ccccc3cc2O)c(=O)n(C)c1=O`, > 12 µM (inactive).
Turning to `O=C(CCl)N1N=C(c2ccco2)CC1c1ccco1` (configuration not stated), the IC50 was 0.762 µM.
Turning to `O=C(NC1CCCCC1)C(c1cccnc1)N(C(=O)CCl)c1cccc(Cl)c1` (configuration not stated), the IC50 was 0.503 µM.
Turning to `O=C(O)CN1C(=O)/C(=C\c2ccccc2OCc2ccc(Cl)cc2Cl)SC1=S`, the IC50 is 11 µM (inactive).
For the compound `CN(Cc1cnc2nc(N)nc(N)c2n1)c1ccc(C(=O)NC(CCC(=O)O)C(=O)O)c2ccccc12` (configuration not stated), the IC50 was 0.0186 µM.
Regarding `Fc1cccc(CSc2nnc3ccc(-c4ccncc4)nn23)c1`, the IC50 was > 35.8 µM (inactive).
For the compound `O=C(N/N=C/c1ccccc1O)/C(=C/c1ccccc1)CCO`, the IC50 was 5.52 µM.
With `CNc1ncnc(Sc2nc(N)nc3nc[nH]c23)c1[N+](=O)[O-]`, the half-inhibitory concentration (IC50) is 2.81 µM.
To `O=C(CCC(=O)Nc1ccc(Br)cc1)N/N=C/c1ccccc1O` belongs 4.33 µM; to `CN(C)C(=O)c1ccc(-c2n[nH]c(=O)c3ccccc23)cc1`, 5.67 µM.
For `CCOc1ccccc1-n1c(SCC(=O)Nc2ccccc2C(=O)O)nc2ccccc2c1=O`, the half-inhibitory concentration (IC50) is 9.64 µM.
Consider `O=C(CCl)N(c1ccccc1)C1CCS(=O)(=O)C1` (configuration not stated), for which the half-maximal inhibitory concentration (IC50) is 1.74 µM.
As to `CCN(C(=O)c1cc(S(=O)(=O)N2CCCCC2)c[nH]1)c1ccc(OC)cc1`, the IC50 is 8 µM.
Take `CCCCN(CCCC)c1ncnc2nc[nH]c12`: the IC50 was 2.14 µM.
As to `COc1ccc(NC(=O)CN(C)C(=O)C2(c3ccccc3)CCCC2)cc1`, the IC50 was 5.39 µM.
The value for `CCN1CCN(C(=S)c2ccc(-c3ccccc3)cc2)CC1` was 4.62 µM; that for `Cc1nc2ccccn2c1-c1ccnc(=S)[nH]1` was 4.25 µM.
To `Cc1nn(C(C)(C)C)c(C)c1/C=N/OC(=O)Nc1ccc(Cl)c(Cl)c1` belongs 2.09 µM.
For the compound `CC(=O)/C(N=Nc1ccc2c(c1)OCCO2)=C(\C)O`, the IC50 is 3.11 µM.
On to `OCCN1CCN(C(=S)c2ccc(-c3ccccc3)cc2)CC1`, for which the half-inhibitory concentration (IC50) is 1.28 µM.
For the compound `Cc1ccc(/C=C2\SC(=S)N(CCCC(=O)NC3CCCC3)C2=O)cc1`, the IC50 is 1.58 µM.
The value for `N#Cc1cc2ccncc2c2ccccc12` was 4.76 µM; that for `CCc1c(C)nc2c(C)cccc2c1SCCC#N` was 13.6 µM (inactive); that for `O=C(Nc1cccc(C(F)(F)F)c1)Nc1nnc([C@@H]2C[C@H](O)[C@@H](CO)O2)s1` was 4.17 µM.
With `CC1(C)Cc2c(ccc3ccccc23)C(=O)N1`, the IC50 is 3.21 µM.
For `O=C(O)c1ccccc1C(=O)Nc1ccc(Oc2cccc3ccccc23)cc1`, the IC50 is > 35.9 µM (inactive).
To `O=C1CCC2S/C(=C/Nc3ccc(C(F)(F)F)cc3)C(=O)N12` (configuration not stated) belongs 7.25 µM; to `c1ccc(-c2nnc(-c3ccccn3)nc2NC2CCCCC2)cc1`, 2.89 µM.
For `Cc1nc(N2CCC(C(N)=O)CC2)c2c(-c3cccs3)csc2n1`, the IC50 was 3.31 µM.
For the compound `Nc1ccn(C2OC(CO)C(O)C2O)c(=O)n1` (configuration not stated), the IC50 is 6.77 µM.
On to `CCN(c1ccccc1)S(=O)(=O)c1cc(C(=O)Nc2ccc(Br)cc2)ccc1F`, for which the concentration for half-maximal inhibition (IC50) is 6.6 µM.
The value for `COc1cc(/C=C2\SC(N)=NC2=O)cc(OC)c1` was 7.14 µM; that for `O=C(COC(=O)c1ccc[nH]c1=O)Nc1ccc(N2CCCCC2)cc1` was 5.35 µM; that for `COc1ccccc1-c1cc2nc(-c3ccccc3)cc(N3CCN(C(=O)c4ccco4)CC3)n2n1` was 5.66 µM.
Take `O=C(c1ccncc1)N(Cc1cc2ccccc2[nH]c1=O)C1CCCCC1`: the IC50 is 5.34 µM.
As to `O=C1CCC/C1=c1\s/c(=C/c2cccnc2)c(=O)n1-c1ccccc1`, the concentration for half-maximal inhibition (IC50) was 6.2 µM.
On to `Nc1nc(CCl)nc(Nc2cccc3ccccc23)n1`, for which the IC50 was 3.61 µM.
Consider `O=C(Nc1nc(-c2ccccn2)cs1)c1cccc(S(=O)(=O)N2CCOCC2)c1`, for which the IC50 is > 12 µM (inactive).
As for `CCOC(=O)c1cccc2c1-c1ccccc1/C2=N/O`, the IC50 is 3.73 µM.
As to `COc1ccc(Nc2ncnc3ccc(Br)cc23)c(OC)c1`, the IC50 is 2.75 µM.
`CCCc1cc(C(=O)N(C)CC(=O)Nc2ccc(OCC)c(OCC)c2)sc1C`: the IC50 was > 35.9 µM (inactive).
Take `CCOC(=O)CSc1cc(-c2ccccc2)nc2ncnn12`: the IC50 is > 35.9 µM (inactive).
Consider `Cc1cc(=O)[nH]c(Nc2cccc(Br)c2)n1`, for which the IC50 was 6.81 µM.
Take `c1ccc(-c2csc3ncnc(NCCN4CCOCC4)c23)cc1`: the IC50 is 8.04 µM.
Turning to `CC(=O)N1CCN(c2ccc(Oc3ncnc4sccc34)cc2)CC1`, the IC50 is 4.79 µM.
Consider `CCCCCCCC[n+]1c(C)n(-c2ccccc2)c2ccc(NC(C)=O)cc21`, for which the half-inhibitory concentration (IC50) was 4.36 µM.
For the compound `COc1ccc(CNc2ncc(-c3ccc(F)cc3)n2C)c2ccccc12`, the IC50 is 11.6 µM (inactive).
For the compound `CCOc1cccc(/C=N/NC(=O)c2cc(C3CC3)[nH]n2)c1O`, the IC50 is 14.8 µM (inactive).
Turning to `c1cc2c(cn1)cnc1cscc12`, the half-inhibitory concentration (IC50) was 4.51 µM.
The value for `Cc1nc2c(-c3ccc(Cl)cc3)c(C)[nH]n2c(=O)c1Cc1ccccc1` was 4.49 µM.
With `Cc1ccc(NC(=O)CCC(=O)N/N=C/c2ccc(O)cc2O)cc1`, the IC50 is 13.5 µM (inactive).
Take `CC1CCN(C(=O)c2scc3c2OCCO3)CC1`: the IC50 is 10 µM (inactive).
As for `COc1cc(C2c3cc4c(cc3C(OC3OC5COC(c6cccs6)OC5C(O)C3O)C3COC(=O)C23)OCO4)cc(OC)c1O` (configuration not stated), the IC50 was 0.0913 µM.
With `Cn1nc(C(F)(F)F)c(C#N)c1N1CCN(c2ccc(F)cc2)CC1`, the half-inhibitory concentration (IC50) was 2.13 µM.
Regarding `COc1ccc(Nc2ncnc3ccc(C)cc23)cc1`, the IC50 is 2.62 µM.
`Cc1c(/C(O)=C2/C(=O)C(=O)N(Cc3cccnc3)C2c2ccccn2)cnn1-c1ccccc1` (configuration not stated): the IC50 was 6.55 µM.
For `O=C(Nc1cccc(Cl)c1)Nc1nnc(-c2ccncc2)s1`, the IC50 was 3.62 µM.
With `CC(C)(C)OC(=O)NCC(=O)Oc1cc2oc(=O)cc(-c3ccccc3)c2cc1Cl`, the IC50 is 11.5 µM (inactive).
The value for `COc1ccc2ncn(-c3ccccc3)c2c1` was 2.99 µM; that for `O=C(Nc1ccncc1)c1ccccc1[N+](=O)[O-]` was 4.77 µM; that for `COc1cc([C@@H]2c3cc4c(cc3[C@@H](O[C@@H]3O[C@@H]5CO[C@@H](C)O[C@H]5[C@H](O)[C@H]3O)[C@H]3COC(=O)[C@H]23)OCO4)cc(OC)c1O` was 0.375 µM.
For the compound `CCOC(=O)c1c(NC(=O)C(C)N2CCN(C(=O)c3ccco3)CC2)sc2c1CCCC2` (configuration not stated), the 50% inhibitory concentration (IC50) is 9.89 µM.
Consider `CCn1c(Oc2cccc(Br)c2)nc2c1c(=O)n(C)c(=O)n2C`, for which the IC50 was 17 µM (inactive).
For the compound `CC[C@@]1(O)C(=O)OCc2c1cc1n(c2=O)Cc2cc3c(NC(=O)CN)cccc3nc2-1`, the IC50 is 1.05 µM.
To `CC(NC(=O)COC(=O)c1cccs1)c1ccccc1` (configuration not stated) belongs > 35.9 µM (inactive).
For the compound `CS(=O)(=O)Nc1cccc(NC(=O)C2Cc3c(-c4ccco4)ccnc3O2)c1` (configuration not stated), the IC50 was > 12 µM (inactive).
Take `O=C(O)c1ccccc1-c1c2cc(I)c(=O)c(I)c-2oc2c(I)c(O)c(I)cc12`: the IC50 was > 35.9 µM (inactive).
On to `CCN(Cc1ccncc1)C(=O)CC1C(=O)NCCN1Cc1ccc(F)c(F)c1` (configuration not stated), for which the concentration for half-maximal inhibition (IC50) was 4.94 µM.
As to `COc1cc(OC)c2cc(C(=O)N/N=C/c3cccc(OC)c3O)[nH]c2c1`, the concentration for half-maximal inhibition (IC50) was 3.56 µM.
On to `c1cnc2ccc(-n3ccnc3)cc2c1`, for which the IC50 is 7.69 µM.

By IC50 is commonly meant the midpoint of a concentration-inhibition curve.
